Measured values as given in patent US20230346705A1, “NANOPARTICLES FOR TREATING OR PREVENTING A CARDIOMYOPATHY AND ANTHRACYCLINE-CYTOTOXICITY, AND THEIR ADMINISTRATION AS AN AEROSOL” (INSTITUT NATIONAL DE LA SANTE ET DE LA RECHERCHE MEDICALE …, priority 2020, published 2023).

Tests used:
H9C2 cells [1] = assay: Autophagosomes/autolysosomes visualization (GFP-LC3, RFP-GFP-LC3) in H9C2; assay type: cell-based, Rat
Method: Autophagosomes were visualized in GFP-LC3-transduced cells. Autophagic flux was evaluated in RFP-GFP-LC3-transduced cells. Representative images were taken with an epifluorescence microscope (DM600 microscope, Leica) and quantification of yellow puncta (autophagosomes) and red puncta (autolysosomes) was performed using Image J software.

H9C2 cells [2] = assay: Lysosomal pH (Acridine Orange, Lysosensor) in H9C2; assay type: cell-based, Rat
Method: Acridine Orange (Sigma Aldrich), a weak base which accumulates in acidic organelles, was used to label the lysosomes. After treatments, cells were incubated with 5 μM AO for 10 min at 37° C. and washed twice with PBS. Red fluorescence (corresponding to acidic vesicles staining) was measured using a Varioskan Flash Multimode Microplate Reader with excitation/emission at 480/630 nm. Representative pictures were taken with an epifluorescence microscope (DM600 microscope, Leica).
Lysosomal acidification was measured in H9C2 and NRVMs loaded with 2 μM LysoSensor yellow/blue DND-160 (Invitrogen) for 15 min at 37° C. The LysoSensor dye is a ratiometric probe that produces yellow fluorescence in acidic environments, but changes to blue fluorescence in neutral environments. pH calibration was performed following the protocol established by Diwu et al. (Chem Biol. (1999); 6(7):411-418). Briefly, cells were incubated in MES buffer (5 mMNaCl, 115 mMKCl, 1.3 mM MgSO 4, 25 mM MES) supplemented with 10 μM nigericin and 10 μM monensin, for 10 min, with pH adjusted to a range from 3 to 7. The samples were read in a Varioskan Flash Multimode Microplate Reader with excitation at 360 nm. The ratio of emission 440/540 nm was then calculated for each sample.

LC3-II and p62 = assay: Western blot of autophagy markers LC3-II and p62 in H9C2; assay type: cell-based, Rat; conditions: H9C2, Baf A1 treatment alone
Method: H9C2 or NRVMs extracts were prepared by lysing in RIPA buffer (50 mM Tris pH 7.2, 500 mM NaCl, 1% Triton X-100, 1 mM EDTA, 100 mM sodium fluoride, 5 mM sodium metavanadate, 10 mM sodium pyrophosphate) and equal protein amounts were subjected to sodium dodecyl sulfate-polyacrylamide gel electrophoresis (SDS-PAGE) in 10-15% gels depending upon protein molecular weight. After electrophoresis, proteins were transferred to nitrocellulose membranes and incubated with the following antibodies: anti-GAPDH, anti-LC3B, anti-cleaved caspase 3, anti-p-p53 from Cell Signaling Technology, anti-p62 from Abnova, anti-Lamp1, anti-cathepsin D from Abcam. Proteins were detected by chemiluminescence with a Bio-Rad ChemiDoc XRS camera. Relative densities were quantified using the ImageLab 5.2.1 software (Bio-Rad). All data were normalized by internal controls.

H9C2 cells [3] = assay: Mitochondrial membrane potential (JC-1 probe) in H9C2; assay type: cell-based, Rat; conditions: H9C2, 10 h after doxorubicin 1 μM alone
Method: The mitochondrial membrane potential was evaluated using JC-1 probe (ThermoFisher Scientific). Before the end of treatments, cells were loaded with JC-1 probe at a concentration of 5 μg/ml for 10 min at 37° C. Then, medium was replaced by HBSS and the fluorescence was recorded at 535 nm (excitation wavelength, emission at 590 nm) to measure the formation of red aggregates and at 485 (excitation wavelength, emission at 530 nm) to measure the presence of green monomers, using a fluorimeter TECAN infinite pro F200. Representative images were taken with an epifluorescence microscope (DM600 microscope, Leica).

[4] = tested on: neonatal rat ventricular myocytes (NRVMs); assay: Lysosomal pH (Acridine Orange, Lysosensor) in NRVMs; assay type: cell-based; conditions: doxorubicin 250 nM alone
Method: Rat H9C2 cardiomyoblasts (American Type Culture Collection, Rockville, U.S.A.) were grown in DMEM media containing 10% heat-inactivated FBS under 5% CO2 and 95% air at 37° C. H9C2 serve as an animal-free alternative sharing many physiological properties of primary cardiac cells. For neonatal rat ventricular myocytes (NRVMs), rats of 1-2 days old were euthanized and hearts were excised before the atria were removed. Primary culture of NRVMs was subsequently performed as previously described (Manzella et al. 2018; Aging Cell 17(5):e12811). NRVMs were grown in Ham-F12 medium containing 10% heat-inactivated FBS and 10% heat-inactivated HS under 5% CO2 and 95% air at 37° C. […]
Acridine Orange (Sigma Aldrich), a weak base which accumulates in acidic organelles, was used to label the lysosomes. […] Red fluorescence (corresponding to acidic vesicles staining) was measured using a Varioskan Flash Multimode Microplate Reader with excitation/emission at 480/630 nm. […]
Lysosomal acidification was measured in H9C2 and NRVMs loaded with 2 μM LysoSensor yellow/blue DND-160 (Invitrogen) for 15 min at 37° C. The LysoSensor dye is a ratiometric probe that produces yellow fluorescence in acidic environments, but changes to blue fluorescence in neutral environments. pH calibration was performed following the protocol established by Diwu et al. (Chem Biol. (1999); 6(7):411-418). […]

[5] = tested on: neonatal rat ventricular myocytes (NRVMs); assay: Cell death / toxicity (LDH release) in NRVMs; assay type: cell-based; conditions: doxorubicin 1 μM alone
Method: Rat H9C2 cardiomyoblasts (American Type Culture Collection, Rockville, U.S.A.) were grown in DMEM media containing 10% heat-inactivated FBS under 5% CO2 and 95% air at 37° C. H9C2 serve as an animal-free alternative sharing many physiological properties of primary cardiac cells. For neonatal rat ventricular myocytes (NRVMs), rats of 1-2 days old were euthanized and hearts were excised before the atria were removed. Primary culture of NRVMs was subsequently performed as previously described (Manzella et al. 2018; Aging Cell 17(5):e12811). NRVMs were grown in Ham-F12 medium containing 10% heat-inactivated FBS and 10% heat-inactivated HS under 5% CO2 and 95% air at 37° C. Plasmid transfections with GFP-LC3, GFP-RFP-LC3 or RFP-LAMP1 constructs (Addgene) were performed using Lipofectamine 2000 reagent (Life Technologies) in Opti-MEM™ transfection medium (Gibco). […]
For quantitative assessment of cardiomyocyte necrosis, LDH release in culture medium was measured using the LDH cytotoxicity assay kit according to the manufacturer's instructions (Biovision). Apoptosis was measured in NRVMs by caspase-3 activation using a commercial kit (Biotium) according to the manufacturer's instructions.

H9C2 cells [6] = assay: Cellular ROS (DCFDA) in H9C2; assay type: cell-based, Rat; conditions: H9C2, 10 h after doxorubicin 1 μM alone
Method: (§1) Cellular ROS were measured using the fluorescent probe DCFDA assay at a concentration of 5 μM (ThermoFisher Scientific). Fluorescence was quantified using a fluorimeter TECAN infinite proF200 with excitation/emission at 500/530 nm. Mitochondrial ROS were measured by mitoSOX probe (Invitrogen, Molecular Probes). Briefly, the cells were loaded with mitoSOX probe at a final concentration of 5 μM and incubated for 30 min after the indicated treatments. Cells were resuspended in HBSS before reading in Tecan plate reader.

[7] = tested on: neonatal rat ventricular myocytes (NRVMs); assay: Mitochondrial ROS (mitoSOX) in NRVMs; assay type: cell-based; conditions: doxorubicin 250 nM alone
Method: as §1

[8] = H9C2, Bafilomycin A1 100 nM alone

SMILES	autophagic flux, tandem RFP-GFP-LC3 reporter (H9C2 cells [1]; H9C2, Baf A1 alone)	autophagosomes in GFP-LC3-transduced cells (H9C2 cells [1]; H9C2, Baf A1 treatment alone)	Acridine Orange red puncta (lysosomal acidification) (H9C2 cells [2]; [8])	lysosomal pH (Lysosensor) (H9C2 cells [2]; [8])	LC3-II and p62 protein levels (LC3-II and p62)	autolysosomes (AL), GFP-RFP-LC3 reporter (H9C2 cells [1]; H9C2, doxorubicin 1 μM alone)	number of autophagosomes (AP), GFP-RFP-LC3 reporter (H9C2 cells [1]; H9C2, doxorubicin 1 μM alone)	mitochondrial membrane potential (JC-1) (H9C2 cells [3])	AO red fluorescence (H9C2 cells [2]; H9C2, doxorubicin 1 μM alone)	lysosomal pH (lysosensor blue/yellow ratio) (H9C2 cells [2]; H9C2, doxorubicin 1 μM alone)	duration of A.O. red fluorescence alteration [4]	A.O. red fluorescence ([4]; 24 h)	cell death at the dose used in prior experiments [5]	oxidative stress (ROS, DCFDA) (H9C2 cells [6])	mitochondrial ROS (mitoSOX) [7]
CO/C1=C\C(C)=C\[C@@H](C)[C@@H](O)[C@@H](C)C/C(C)=C/C=C/[C@H](OC)[C@@H]([C@@H](C)[C@@H](O)[C@H](C)[C@@]2(O)C[C@@H](O)[C@H](C)[C@@H](C(C)C)O2)OC1=O [Baf A1, Bafilomycin A1]	accumulation of red+green autophagosomes (AP) and to the reduction of red-only autolysosomes	accumulation of autophagosomes (AP)	loss of Acridine Orange (AO) red puncta	rise in lysosomal pH	increased LC3-II and p62 protein levels	–	–	–	–	–	–	–	–	–	–
COc1cccc2c1C(=O)c1c(O)c3c(c(O)c1C2=O)C[C@@](O)(C(=O)CO)C[C@@H]3O[C@H]1C[C@H](N)[C@H](O)[C@H](C)O1 [doxorubicin]	–	–	–	–	–	accumulation of autolysosomes (AL)	remained unchanged	drop in mitochondrial membrane potential	significantly decreased AO red fluorescence	increased lysosomal pH	maintained until 40 h	decrease in A.O. red fluorescence	rapid cell death in only 24 hours	accumulation of oxidative stress	mitochondrial ROS increase
